Assay results: PubChem BioAssay AID2060897 (Molecular Pharmacology Branch, DTP, NCI, 2025)

System: 966289-007-R4-J1-PDC complex spheroid viability
Assay: Anticancer human tumor 966289-007-R4-J1-PDC patient-derived pancreatic adenocarcinoma cell line growth inhibition [RAS]
Conditions: for viability, T/C: stronger effect = lower value; active means viability on the fitted dose curve at most 10% of control; inactive means the rest
Outline: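 Agents were tested in combination matrices in half-log decrements from a top concentration at or near clinical Cmax (10 microM if undetermined). Targets were multi-cell spheroids of tumour lines plus HUVEC and MSC stromal cells.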

[1] = curve of first compound, second compound 0.000949 µM
[2] = curve of first compound, second compound 0.003 µM
[3] = curve of first compound, second compound 0.00949 µM
[4] = curve of first compound, second compound 0.03 µM
[5] = curve of first compound, second compound 0.0949 µM
[6] = curve of first compound, second compound 0.3 µM
[7] = second compound 0.000949 µM, first compound 0.0316 µM
[8] = second compound 0.000949 µM, first compound 0.1 µM
[9] = second compound 0.000949 µM, first compound 0.316 µM
[10] = second compound 0.000949 µM, first compound 1 µM
[11] = second compound 0.000949 µM, first compound 3.16 µM
[12] = second compound 0.000949 µM, first compound 10 µM
[13] = second compound 0.003 µM, first compound 0.0316 µM
[14] = second compound 0.003 µM, first compound 0.1 µM
[15] = second compound 0.003 µM, first compound 0.316 µM
[16] = second compound 0.003 µM, first compound 1 µM
[17] = second compound 0.003 µM, first compound 3.16 µM
[18] = second compound 0.003 µM, first compound 10 µM
[19] = second compound 0.00949 µM, first compound 0.0316 µM
[20] = second compound 0.00949 µM, first compound 0.1 µM
[21] = second compound 0.00949 µM, first compound 0.316 µM
[22] = second compound 0.00949 µM, first compound 1 µM
[23] = second compound 0.00949 µM, first compound 3.16 µM
[24] = second compound 0.00949 µM, first compound 10 µM
[25] = second compound 0.03 µM, first compound 0.0316 µM
[26] = second compound 0.03 µM, first compound 0.1 µM
[27] = second compound 0.03 µM, first compound 0.316 µM
[28] = second compound 0.03 µM, first compound 1 µM
[29] = second compound 0.03 µM, first compound 3.16 µM
[30] = second compound 0.03 µM, first compound 10 µM
[31] = second compound 0.0949 µM, first compound 0.0316 µM
[32] = second compound 0.0949 µM, first compound 0.1 µM
[33] = second compound 0.0949 µM, first compound 0.316 µM
[34] = second compound 0.0949 µM, first compound 1 µM
[35] = second compound 0.0949 µM, first compound 3.16 µM
[36] = second compound 0.0949 µM, first compound 10 µM
[37] = second compound 0.3 µM, first compound 0.0316 µM
[38] = second compound 0.3 µM, first compound 0.1 µM
[39] = second compound 0.3 µM, first compound 0.316 µM
[40] = second compound 0.3 µM, first compound 1 µM
[41] = second compound 0.3 µM, first compound 3.16 µM
[42] = second compound 0.3 µM, first compound 10 µM
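Further: spheroids exposed to agents for one week before readout.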
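Wherever viability, T/C is given: percent viability relative to DMSO vehicle control wells as 100%.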

NC1c2ccccc2OC12CCN(c1cnc3c(N4CCCc5ncccc54)n[nH]c3n1)CC2 (configuration not stated) + C=CC(=O)N1CCN(c2nc(OCC3CCCN3C)nc3c(F)c(-c4nc(N)cc(C)c4C(F)(F)F)c(Cl)cc23)C(C)C1
inactive: viability, T/C (second compound 0.00316 µM, first compound 0.0316 µM) 117% | viability, T/C (second compound 0.00316 µM, first compound 0.1 µM) 90.1% | viability, T/C (second compound 0.00316 µM, first compound 0.316 µM) 126% | viability, T/C (second compound 0.00316 µM, first compound 1 µM) 102% | viability, T/C (second compound 0.00316 µM, first compound 3.16 µM) 113% | viability, T/C (second compound 0.00316 µM, first compound 10 µM) 103% | viability, T/C (second compound 0.01 µM, first compound 0.0316 µM) 113% | viability, T/C (second compound 0.01 µM, first compound 0.1 µM) 104% | viability, T/C (second compound 0.01 µM, first compound 0.316 µM) 104% | viability, T/C (second compound 0.01 µM, first compound 1 µM) 122% | viability, T/C (second compound 0.01 µM, first compound 3.16 µM) 107% | viability, T/C (second compound 0.01 µM, first compound 10 µM) 118% | viability, T/C (second compound 0.0316 µM, first compound 0.0316 µM) 113% | viability, T/C (second compound 0.0316 µM, first compound 0.1 µM) 103% | viability, T/C (second compound 0.0316 µM, first compound 0.316 µM) 133% | viability, T/C (second compound 0.0316 µM, first compound 1 µM) 113% | viability, T/C (second compound 0.0316 µM, first compound 3.16 µM) 126% | viability, T/C (second compound 0.0316 µM, first compound 10 µM) 119% | viability, T/C (second compound 0.1 µM, first compound 0.0316 µM) 101% | viability, T/C (second compound 0.1 µM, first compound 0.1 µM) 103% | viability, T/C (second compound 0.1 µM, first compound 0.316 µM) 94.2% | viability, T/C (second compound 0.1 µM, first compound 1 µM) 105% | viability, T/C (second compound 0.1 µM, first compound 3.16 µM) 119% | viability, T/C (second compound 0.1 µM, first compound 10 µM) 107% | viability, T/C (second compound 0.316 µM, first compound 0.0316 µM) 109% | viability, T/C (second compound 0.316 µM, first compound 0.1 µM) 91.4% | viability, T/C (second compound 0.316 µM, first compound 0.316 µM) 107% | viability, T/C (second compound 0.316 µM, first compound 1 µM) 120% | viability, T/C (second compound 0.316 µM, first compound 3.16 µM) 102% | viability, T/C (second compound 0.316 µM, first compound 10 µM) 106% | viability, T/C (second compound 1 µM, first compound 0.0316 µM) 105% | viability, T/C (second compound 1 µM, first compound 0.1 µM) 114% | viability, T/C (second compound 1 µM, first compound 0.316 µM) 123% | viability, T/C (second compound 1 µM, first compound 1 µM) 113% | viability, T/C (second compound 1 µM, first compound 3.16 µM) 116% | viability, T/C (second compound 1 µM, first compound 10 µM) 124%
> 10000 nM: IC50 (curve of first compound, second compound 0.00316 µM) | IC50 (curve of first compound, second compound 0.01 µM) | IC50 (curve of first compound, second compound 0.0316 µM) | IC50 (curve of first compound, second compound 0.1 µM) | IC50 (curve of first compound, second compound 0.316 µM) | IC50 (curve of first compound, second compound 1 µM)

CCc1c2c(nc3ccc(O)cc13)-c1cc3c(c(=O)n1C2)COC(=O)[C@]3(O)CC
1.62 nM [middle of 4 runs]: IC50 (curve of compound)
active: viability, T/C (compound 0.003 µM) 2.73% [middle of 4 runs] | viability, T/C (compound 0.00949 µM) 1.18% [middle of 4 runs] | viability, T/C (compound 0.03 µM) 0.96% [middle of 4 runs] | viability, T/C (compound 0.0949 µM) 0.88% [middle of 4 runs] | viability, T/C (compound 0.3 µM) 0.94% [middle of 4 runs]

CC1(O)CCCC1n1c(=O)c(C(F)F)cc2cnc(NC3CCN(S(C)(=O)=O)CC3)nc21 (configuration not stated) + CCn1c(-c2cc(N3CCN(C)CC3)cnc2C(C)OC)c2c3cc(ccc31)-c1csc(n1)CC(NC(=O)C1CC1C)C(=O)N1CCCC(N1)C(=O)OCC(C)(C)C2
108 nM: IC50 [3]
inactive: viability, T/C [7] 148% | viability, T/C [8] 63.6% | viability, T/C [9] 28.7% | viability, T/C [10] 29.1% | viability, T/C [11] 26.8% | viability, T/C [12] 2.64% | viability, T/C [13] 125% | viability, T/C [14] 51.6% | viability, T/C [15] 27.8% | viability, T/C [16] 24.4% | viability, T/C [17] 24.8% | viability, T/C [18] 3.3% | viability, T/C [19] 98.4% | viability, T/C [20] 52.7% | viability, T/C [21] 22.4% | viability, T/C [22] 25.9% | viability, T/C [23] 26% | viability, T/C [24] 3.14% | viability, T/C [25] 85% | viability, T/C [26] 48.6% | viability, T/C [27] 21.9% | viability, T/C [28] 23.7% | viability, T/C [29] 25.1% | viability, T/C [30] 3% | viability, T/C [31] 84.5% | viability, T/C [32] 47.4% | viability, T/C [33] 25.4% | viability, T/C [34] 27.1% | viability, T/C [35] 26.6% | viability, T/C [36] 2.94% | viability, T/C [37] 107% | viability, T/C [38] 55.9% | viability, T/C [39] 28.7% | viability, T/C [40] 25.8% | viability, T/C [41] 24.9% | viability, T/C [42] 3.18%
96 nM: IC50 [5]
92.8 nM: IC50 [4]
120 nM: IC50 [2]
169 nM: IC50 [1]
139 nM: IC50 [6]

CCC(CC)c1cc(NC2CCC(N)C2)n2nccc2n1 (configuration not stated) + CCn1c(-c2cc(N3CCN(C)CC3)cnc2C(C)OC)c2c3cc(ccc31)-c1csc(n1)CC(NC(=O)C1CC1C)C(=O)N1CCCC(N1)C(=O)OCC(C)(C)C2
1550 nM: IC50 [2]
1430 nM: IC50 [1]
inactive: viability, T/C [7] 111% | viability, T/C [8] 89.1% | viability, T/C [9] 99.3% | viability, T/C [10] 71.5% | viability, T/C [13] 72.2% | viability, T/C [14] 98.3% | viability, T/C [15] 89.2% | viability, T/C [16] 79.2% | viability, T/C [19] 81.7% | viability, T/C [20] 103% | viability, T/C [21] 81.9% | viability, T/C [22] 131% | viability, T/C [25] 72.3% | viability, T/C [26] 86.8% | viability, T/C [27] 92.5% | viability, T/C [28] 98.9% | viability, T/C [31] 86.2% | viability, T/C [32] 111% | viability, T/C [33] 107% | viability, T/C [34] 119% | viability, T/C [37] 75.7% | viability, T/C [38] 116% | viability, T/C [39] 116% | viability, T/C [40] 117%
1790 nM: IC50 [3]
1860 nM: IC50 [6]
active: viability, T/C [11] 1.75% | viability, T/C [12] 1.38% | viability, T/C [17] 2.05% | viability, T/C [18] 1.33% | viability, T/C [23] 1.93% | viability, T/C [24] 1.58% | viability, T/C [29] 1.68% | viability, T/C [30] 2.28% | viability, T/C [35] 1.88% | viability, T/C [36] 1.55% | viability, T/C [41] 2.08% | viability, T/C [42] 1.97%
1850 nM: IC50 [5]
1660 nM: IC50 [4]
